Source: US6906205B2, “Spiro and dispiro 1,2,4-trioxolane antimalarials” (Medicines for Malaria Venture MMV, priority 2002, dated 2005)
Values after ≈ are worked out from the molar mass of the structure shown.

Columns and labels:
[1] = test system: P. falciparum K1 strain (Thailand resistant to chloroquine); test: semiautomated microdilution assay, [3H]-hypoxanthine incorporation, K1 strain; type: cell-based, Plasmodium falciparum; conditions: K1 strain, 72 h incubation
How it was run: (§1)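 Intraerythrocytic stages from unsynchronised stock cultures are exposed to test compounds in a semiautomated microdilution format, and fifty percent inhibitory concentrations are then fitted by logit regression.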

[2] = test system: ANKA strain of P. berghei; test: single dose STI in vivo screen in infected mice; design: species or system Plasmodium berghei; conditions: for Activity (%) 3 mg/kg SSV po / Activity (%) 10 mg/kg SSV po: percent reduction in parasitemia day 3 post-infection; for Activity (%) 3 mg/kg SSV po / Survival (days) 3 mg/kg SSV po: single 3 mg/kg po in SSV; for Survival (days) 10 mg/kg SSV po / Activity (%) 10 mg/kg SSV po: single 10 mg/kg po in SSV
How it was run: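 Groups of 3-5 Moro SPF or NMRI mice infected with the ANKA strain of P. berghei received a single dose of trioxolane on day one post-infection. The compound was given in 3% ethanol and 7% Tween 80 or in SSV (0.5% w/v CMC, 0.5% v/v benzyl alcohol, 0.4% v/v Tween 80, 0.9% w/v sodium chloride in water). Antimalarial activity was scored as percent reduction in parasitemia on day three and as survival time versus untreated controls. Survival to day 30 counted as cure.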

[3] = test system: Schistosoma mansoni adult schistosomes (49-day-old); test: effect on adult schistosomes (49-day-old) in mice; type: in vivo; conditions: single 400 mg/kg per os
Experimental: Mice were infected with 100 Schistosoma mansoni cercariae […]. Each group was treated per os with OZ compounds at single doses of 200, 400, and 600 mg/kg. […] All groups were killed 4 weeks after treatment and the liver and intestine were removed and separated. The liver and intestine were compressed and alive male and female worms could be seen and counted.

[4] = test system: Schistosoma mansoni 21-day-old schistosomules; test: effect on 21-day-old schistosomules in mice; type: in vivo; conditions: single 200 mg/kg per os, female mice
Experimental: All groups were killed 4 weeks after treatment and the liver and intestine were removed and separated. The liver and intestine were compressed and alive male and female worms could be seen and counted. The effect of the compounds was evaluated by mean total and female worm burden.

[5] = test system: P. falciparum NF54 strain (sensitive to standard antimalarials); test: semiautomated microdilution assay, [3H]-hypoxanthine incorporation, NF54 strain; type: cell-based, Plasmodium falciparum; conditions: NF54 strain, 72 h incubation
How it was run: as §1

P. berghei ANKA strain = test: treatment: 3x3 mg/kg and 3x1 mg/kg po divided doses in infected mice; type: in vivo, Plasmodium berghei; conditions: for infected mice cured: 3×3 mg/kg po on days 1, 2, 3 post-infection; for infected mice cured / activity (percent reduction of parasitemia): SSV; for activity (percent reduction of parasitemia): 3×1 mg/kg po on days 1, 2, 3 post-infection; for Activity (%) p.o. SSV: percent reduction of parasitemia day 4
Experimental: Moro NMRI male mice (Fü Albino specific pathogen free) weighing 18±2 g were infected intravenously (i.v.) with 2×10^7 P. berghei ANKA strain-infected erythrocytes from donor mice on day 0 of the experiment. From donor mice with circa 30% parasitemia, heparinized blood was taken and diluted in physiological saline to 10^8 parasitized erythrocytes per ml. An aliquot (0.2 ml) of this suspension was injected i.v. into experimental and control groups of mice. In untreated control mice, parasitemia rose regularly to 40 to 50% by day 3 post-infection and 70 to 80% by day 4 post-infection. The mice died between days 5 and 7 post-infection. Throughout the experiments, mice were kept in groups of three or five animals in Makrolon type II cages in an air-conditioned animal room at 22 to 23° C. A diet with p-aminobenzoic acid (PABA) of 45 mg (NAFAG FUTTER© food N^o 9009 PAB-45) per kg of body weight, and tap water is available ad libitum.
OZ compounds were prepared at an appropriate concentration, either as a solution or a suspension containing SSV (0.5% w/v CMC, 0.5% v/v benzyl alcohol, 0.4% v/v Tween 80, and 0.9% w/v sodium chloride in water). They were administered per os (p.o.) in a total volume of 0.01 ml per gram of mouse. The activity of the compound was determined by a variety of methods outlined in subsequent sections. Survival time was also recorded, and survival to day 30 post-infection was considered to be a cure.
The second experiment consists of administration of divided 3×3 mg/kg and 3×1 mg/kg po doses administered on days 1, 2, and 3 post-infection. On day 4 post-infection, blood smears of all animals were prepared and stained with Giemsa. Parasitemia was determined microscopically, and the difference between the mean value of the control group (taken as 100%) and those of the experimental groups was calculated and expressed as percent reduction. Compounds were administered orally in the SSV vehicle.

[6] = 3 × 1 mg/kg days 1, 2, 3 post-infection
[7] = 3 × 3 mg/kg days 1, 2, 3 post-infection

O=C1CN(C(=O)C[C@H]2CC[C@]3(CC2)OO[C@]2(O3)C3CC4CC(C3)CC2C4)CCN1 [OZ296]
IC50 (ng/ml) K1 [1]: 0.60 ng/mL (≈ 0.00148 µM)
Activity (%) 3 mg/kg SSV po [2]: 90%
Survival (days) 10 mg/kg SSV po [2]: 10.0 days
% reduction of adult worms growth at day 49 after per os application of 400 mg/kg, TWR (%) [3]: 1%
adult worms at day 49, per os 400 mg/kg, DEAD WORM (%) [3]: 13%
% reduction of schistosomule growth at day 21 after per os application of 200 mg/kg, FWR (%) [4]: 85%
% reduction of schistosomule growth at day 21 after per os application of 200 mg/kg, TWR (%) [4]: 85%
IC50 (ng/ml) NF54 [5]: 0.89 ng/mL (≈ 0.0022 µM)

c1cc(OC[C@H]2CC[C@]3(CC2)OO[C@]2(O3)C3CC4CC(C3)CC2C4)ccn1 [OZ301]
infected mice cured (P. berghei ANKA strain): ⅕
Activity (%) 3 mg/kg SSV po [2]: 97%
Activity (%) 10 mg/kg SSV po [2]: 100%

O=C(O)CNC[C@H]1CC[C@]2(CC1)OO[C@]1(O2)C2CC3CC(C2)CC1C3 [OZ309]
IC50 (ng/ml) K1 [1]: 11 ng/mL (≈ 0.0313 µM)
Activity (%) 3 mg/kg SSV po [2]: 86%
Survival (days) 10 mg/kg SSV po [2]: 8.8 days
% reduction of adult worms growth at day 49 after per os application of 400 mg/kg, TWR (%) [3]: 19%
adult worms at day 49, per os 400 mg/kg, DEAD WORM (%) [3]: 17%
% reduction of schistosomule growth at day 21 after per os application of 200 mg/kg, FWR (%) [4]: 100%
% reduction of schistosomule growth at day 21 after per os application of 200 mg/kg, TWR (%) [4]: 97%
IC50 (ng/ml) NF54 [5]: 17 ng/mL (≈ 0.0484 µM)

O=C(O)C1CCN(C(=O)C[C@H]2CC[C@]3(CC2)OO[C@]2(O3)C3CC4CC(C3)CC2C4)CC1 [OZ312]
IC50 (ng/ml) K1 [1]: 19 ng/mL (≈ 0.0438 µM)
Activity (%) 3 mg/kg SSV po [2]: 13%
Activity (%) 10 mg/kg SSV po [2]: 43%
Survival (days) 10 mg/kg SSV po [2]: 7.2 days
% reduction of adult worms growth at day 49 after per os application of 400 mg/kg, TWR (%) [3]: 16%
adult worms at day 49, per os 400 mg/kg, DEAD WORM (%) [3]: 9%
% reduction of schistosomule growth at day 21 after per os application of 200 mg/kg, FWR (%) [4]: 93%
% reduction of schistosomule growth at day 21 after per os application of 200 mg/kg, TWR (%) [4]: 94%
IC50 (ng/ml) NF54 [5]: 27 ng/mL (≈ 0.0623 µM)

O=C(NC[C@H]1CC[C@]2(CC1)OO[C@]1(O2)C2CC3CC(C2)CC1C3)N1CCNCC1 [OZ329]
IC50 (ng/ml) K1 [1]: 0.43 ng/mL (≈ 0.00106 µM)
activity (percent reduction of parasitemia) (P. berghei ANKA strain): greater than 99%
infected mice cured (P. berghei ANKA strain): ⅖
% reduction of adult worms growth at day 49 after per os application of 400 mg/kg, TWR (%) [3]: 15%
adult worms at day 49, per os 400 mg/kg, DEAD WORM (%) [3]: 6%
% reduction of schistosomule growth at day 21 after per os application of 200 mg/kg, FWR (%) [4]: 90%
% reduction of schistosomule growth at day 21 after per os application of 200 mg/kg, TWR (%) [4]: 90%
IC50 (ng/ml) NF54 [5]: 0.68 ng/mL (≈ 0.00168 µM)

NCCC(=O)NC[C@H]1CC[C@]2(CC1)OO[C@]1(O2)C2CC3CC(C2)CC1C3 [OZ336]
activity (percent reduction of parasitemia) (P. berghei ANKA strain): greater than 99%
Activity (%) 3 mg/kg SSV po [2]: 98%
Activity (%) 10 mg/kg SSV po [2]: 99.93%
Survival (days) 10 mg/kg SSV po [2]: 9.2 days

NC1CCN(C(=O)C[C@H]2CC[C@]3(CC2)OO[C@]2(O3)C3CC4CC(C3)CC2C4)CC1 [OZ339]
infected mice cured (P. berghei ANKA strain): ⅗
Activity (%) 3 mg/kg SSV po [2]: 99.65%
Activity (%) 10 mg/kg SSV po [2]: 99.95%

O=C(O)CC[C@H]1CC[C@]2(CC1)OO[C@]1(O2)C2CC3CC(C2)CC1C3 [OZ352]
IC50 (ng/ml) K1 [1]: 19 ng/mL (≈ 0.0565 µM)
Activity (%) 3 mg/kg SSV po [2]: 77%
Activity (%) 10 mg/kg SSV po [2]: 99.66%
Survival (days) 3 mg/kg SSV po [2]: 7.2 days
Survival (days) 10 mg/kg SSV po [2]: 8.2 days
% reduction of adult worms growth at day 49 after per os application of 400 mg/kg, TWR (%) [3]: 16%
adult worms at day 49, per os 400 mg/kg, DEAD WORM (%) [3]: 26%
% reduction of schistosomule growth at day 21 after per os application of 200 mg/kg, FWR (%) [4]: 91%
% reduction of schistosomule growth at day 21 after per os application of 200 mg/kg, TWR (%) [4]: 89%
IC50 (ng/ml) NF54 [5]: 20 ng/mL (≈ 0.0594 µM)

O=C(O)C(=O)NC[C@H]1CC[C@]2(CC1)OO[C@]1(O2)C2CC3CC(C2)CC1C3 [OZ360]
IC50 (ng/ml) K1 [1]: 58 ng/mL (≈ 0.159 µM)
Activity (%) 3 mg/kg SSV po [2]: 0%
Activity (%) 10 mg/kg SSV po [2]: 38%
Survival (days) 3 mg/kg SSV po [2]: 6.2 days
Survival (days) 10 mg/kg SSV po [2]: 6.8 days
% reduction of adult worms growth at day 49 after per os application of 400 mg/kg, TWR (%) [3]: 0/0%
adult worms at day 49, per os 400 mg/kg, DEAD WORM (%) [3]: 0/0%
% reduction of schistosomule growth at day 21 after per os application of 200 mg/kg, FWR (%) [4]: 13%
% reduction of schistosomule growth at day 21 after per os application of 200 mg/kg, TWR (%) [4]: 17%
IC50 (ng/ml) NF54 [5]: 59 ng/mL (≈ 0.161 µM)

Oc1ccc(C2CCC3(CC2)OOC2(O3)C3CC4CC(C3)CC2C4)cc1 (stereo not shown) [compound 288]
Survival (days) p.o. SSV (P. berghei ANKA strain; [6]): 8.4 days
Activity (%) p.o. SSV (P. berghei ANKA strain; [6]): 49%
Survival (days) p.o. SSV (P. berghei ANKA strain; [7]): 10.2 days
Activity (%) p.o. SSV (P. berghei ANKA strain; [7]): 99%
